Laboratory results as given in patent US4803199A, “Pharmaceutically useful heterocyclic and carbocyclic acid esters and amides of alkylene bridged piperidines” (priority 1987, dated 1989).

How the values were obtained:
[1] = system: M receptors for serotonin; details: isolated rabbit vagus nerve; cited from earlier work
[2] = target: T1, serotonin M receptor (Oryctolagus cuniculus, UniProt A0A5F9C9J3); assay: inhibition of the effect of serotonin on the isolated rabbit heart; details: rabbit heart test, antagonism of serotonin; read-out: pA2 value (converted)
T1 construct: isolated rabbit heart; from tissue; host or cells: isolated rabbit heart
T1 sequence (A0A5F9C9J3 1-494): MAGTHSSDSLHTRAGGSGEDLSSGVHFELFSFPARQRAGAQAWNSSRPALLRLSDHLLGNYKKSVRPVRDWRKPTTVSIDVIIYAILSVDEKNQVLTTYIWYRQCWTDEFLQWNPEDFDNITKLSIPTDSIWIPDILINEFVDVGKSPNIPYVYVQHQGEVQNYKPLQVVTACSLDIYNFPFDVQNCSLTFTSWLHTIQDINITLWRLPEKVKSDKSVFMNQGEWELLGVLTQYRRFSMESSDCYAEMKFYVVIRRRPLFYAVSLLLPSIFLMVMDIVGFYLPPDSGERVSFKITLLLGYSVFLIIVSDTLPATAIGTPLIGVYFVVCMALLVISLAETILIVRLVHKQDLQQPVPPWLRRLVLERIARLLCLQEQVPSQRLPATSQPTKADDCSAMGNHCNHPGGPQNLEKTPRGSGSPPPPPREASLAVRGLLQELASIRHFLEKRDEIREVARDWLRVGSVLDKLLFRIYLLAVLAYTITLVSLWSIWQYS
Text: The serotonin M receptor antagonist activity is also indicated by inhibiting the effect of serotonin on the isolated rabbit heart according to the method of J. R. Fozard and A. T. Moborak Ali, European Journal of Pharmacology, (1978) 49, 109-112 at concentrations of 10^-11 to 10^-5 M of the compound of the invention. pD'2 or pA2 values may be calculated in the conventional manner.

[3] = system: M receptors; details: blister base on forearm of human volunteers; cited from earlier work

Row | SMILES | block of the action of serotonin on C fibre action potential amplitude [1] | Kb [2] [nM] | other results
1 | CCN(CC)C(=O)[C@@H]1C=C2c3cccc4[nH]c(Br)c(c34)C[C@H]2N(C)C1 [BOL-148] | not blocked | – | –
2 | COc1cc(N(C)C)ccc1C(=O)O[C@@H]1C[C@H]2CC[C@@H](C1)N2Cc1ccccc1 [Example C-2] | – | 0.01 | –
3 | CCN(CC)C(=O)[C@@H]1C=C2c3cccc4[nH]cc(c34)C[C@H]2N(C)C1 [lysergic acid diethylamide] | – | – | inhibition of the algesic action of serotonin [3]: not inhibited
4 | CC[C@@H](CO)NC(=O)[C@@H]1C=C2c3cccc4c3c(cn4C)C[C@H]2N(C)C1 [methysergide] | not blocked | – | –
5 | CSc1ccc2c(c1)C(N1CCN(C)CC1)Cc1ccccc1S2 (stereo not drawn) [metitepine] | not blocked | – | –
6 | CCN(CC)CCNC(=O)c1cc(Cl)c(N)cc1OC [metoclopramide] | – | 79.4 | –
